In patent publication US20230295197A1, “STAT5 and STAT6 Degraders and Uses Thereof” (REGENTS OF THE UNIVERSITY OF MICHICAN, priority 2022, published 2023):
Where two headings read alike, the source gives them in different places. *1 amine or outer side, *2 acyl side, *3 side chain or, on linkers, in order; H or OH if unused. Where a SMILES comes first, the peptide text is derived from it. [ ]: non-standard residue; d: D form. The star is where a group is joined. Benzothienyl2CO(5-CF2PO3H2) = O=C(c1cc2cc(C(F)(F)P(=O)(O)O)ccc2s1)*; βAla(N-(4-Br-phenyl)) = O=C(CCN(c1ccc(Br)cc1)[*:1])[*:2]; NHBn(4-(4-Me-thiazol-5-yl)) = Cc1ncsc1-c1ccc(CN*)cc1; NH(CH2)9CO = O=C(CCCCCCCCCN[*:1])[*:2]; Hyp = O=C(O)[C@@H]1C[C@@H](O)CN1; Tle = CC(C)(C)[C@H](N)C(=O)O

Target: T1, STAT6 (Homo sapiens, UniProt P42226)
T1 construct: endogenous in cells; host or cells: MOLM-16, KU-812, SKNO1, MB231, L1236
T1 sequence (P42226 1-847): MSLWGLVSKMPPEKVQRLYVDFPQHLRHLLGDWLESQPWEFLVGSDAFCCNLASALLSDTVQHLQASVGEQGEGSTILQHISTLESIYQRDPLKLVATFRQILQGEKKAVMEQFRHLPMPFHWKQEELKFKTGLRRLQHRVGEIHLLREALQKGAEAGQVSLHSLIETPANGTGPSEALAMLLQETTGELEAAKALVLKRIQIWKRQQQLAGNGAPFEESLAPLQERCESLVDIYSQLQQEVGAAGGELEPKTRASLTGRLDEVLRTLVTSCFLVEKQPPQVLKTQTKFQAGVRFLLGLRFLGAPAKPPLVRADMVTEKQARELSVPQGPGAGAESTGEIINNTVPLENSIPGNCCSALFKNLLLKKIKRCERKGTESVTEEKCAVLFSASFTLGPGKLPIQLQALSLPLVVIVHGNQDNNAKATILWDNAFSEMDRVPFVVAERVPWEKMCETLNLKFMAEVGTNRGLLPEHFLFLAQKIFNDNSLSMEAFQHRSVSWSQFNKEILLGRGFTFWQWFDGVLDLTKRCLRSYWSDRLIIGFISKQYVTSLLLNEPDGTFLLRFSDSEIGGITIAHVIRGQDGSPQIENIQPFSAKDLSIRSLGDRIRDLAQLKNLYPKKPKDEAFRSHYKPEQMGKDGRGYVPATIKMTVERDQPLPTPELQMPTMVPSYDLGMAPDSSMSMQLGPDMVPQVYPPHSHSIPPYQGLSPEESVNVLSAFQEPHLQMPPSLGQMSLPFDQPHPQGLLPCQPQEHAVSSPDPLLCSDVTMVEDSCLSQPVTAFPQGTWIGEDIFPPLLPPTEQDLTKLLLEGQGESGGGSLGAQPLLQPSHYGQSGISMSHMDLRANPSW
Experiment: Immunoblotting (Western blot) analysis of STAT6 degradation efficiency of degraders in treated cells
Format: cell-based
In short: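 Degradation read by quantitative near-infrared Western blot: equal protein loads (20-40 μg) from compound-treated versus untreated cells, probed overnight at 4° C. for STAT5 or STAT6 with GAPDH reference. Compound concentrations and exposure times as indicated; cells grown in medium with 10% FBS at 37° C.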

[1] = MOLM-16 cells, class symbols, read-out: DC50 S6 MOLM-16

SMILES | DC50 [1] | other results
CC(C)(C)[C@H](NC(=O)c1cc2cc(C(F)(F)P(=O)(O)O)ccc2s1)C(=O)N1CCN(C(=O)CC(=O)NCCCCCC#Cc2ccc3c(c2)C(=O)N(C2CCC(=O)NC2=O)C3=O)C[C@H]1C(=O)N1CCC[C@H](c2ccccc2)C1 (stereo partly drawn) [Compound 530, ((2-(((2S)-1-((2S)-4-(3-((7-(2-(2,6-dioxopiperidin-3-yl)-1,3-dioxoisoindolin-5-yl)hept-6-yn-1-yl)amino)-3-oxopropanoyl)-2-((R)-3-phenylpiperidine-1-carbonyl)piperazin-1-yl)-3,3-dimethyl-1-oxobutan-2-yl)carbamoyl)benzo[b]thiophen-5-yl)difluoromethyl)phosphonic acid] | > 10 µM | –
CC(C)(C)[C@H](NC(=O)c1cc2cc(C(F)(F)P(=O)(O)O)ccc2s1)C(=O)N1C[C@@H](OCC(=O)NCCCCCC#Cc2ccc3c(c2)C(=O)N(C2CCC(=O)NC2=O)C3=O)C[C@H]1C(=O)N1CCO[C@H](c2ccccc2)C1 (stereo partly drawn) [Compound 488, ((2-(((2S)-1-((2S,4S)-4-(2-((7-(2-(2,6-dioxopiperidin-3-yl)-1,3-dioxoisoindolin-5-yl)hept-6-yn-1-yl)amino)-2-oxoethoxy)-2-((R)-2-phenylmorpholine-4-carbonyl)pyrrolidin-1-yl)-3,3-dimethyl-1-oxobutan-2-yl)carbamoyl)benzo[b]thiophen-5-yl)difluoromethyl)phosphonic acid] | > 10 µM | –
CC(C)(C)[C@H](NC(=O)c1cc2cc(C(F)(F)P(=O)(O)O)ccc2s1)C(=O)N1C[C@@H](OCCCCCNc2cccc3c2CN(C2CCC(=O)NC2=O)C3=O)C[C@H]1C(=O)N1CCO[C@H](c2ccccc2)C1 (stereo partly drawn) [Compound 598, ((2-(((2S)-1-((2S,4S)-4-((5-((2-(2,6-dioxopiperidin-3-yl)-1-oxoisoindolin-4-yl)amino)pentyl)oxy)-2-((R)-2-phenylmorpholine-4-carbonyl)pyrrolidin-1-yl)-3,3-dimethyl-1-oxobutan-2-yl)carbamoyl)benzo[b]thiophen-5-yl)difluoromethyl)phosphonic acid] | – | DC50 (MOLM-16 cells, numeric bound, read-out: DC50 S6 MOLM-16): > 0.3 µM
Cc1ncsc1-c1ccc(CNC(=O)[C@@H]2C[C@@H](O)CN2C(=O)[C@@H](NC(=O)CCCCCCNC(=O)CO[C@@H]2C[C@@H](C(=O)N(C)c3ccc(Br)cc3)N(C(=O)[C@@H](NC(=O)c3cc4cc(C(F)(F)P(=O)(O)O)ccc4s3)C(C)(C)C)C2)C(C)(C)C)cc1 [Compound 418, ((2-(((S)-1-((2S,4R)-2-((4-bromophenyl)(methyl)carbamoyl)-4-(2-((7-(((S)-1-((2S,4R)-4-hydroxy-2-((4-(4-methylthiazol-5-yl)benzyl)carbamoyl)pyrrolidin-1-yl)-3,3-dimethyl-1-oxobutan-2-yl)amino)-7-oxoheptyl)amino)-2-oxoethoxy)pyrrolidin-1-yl)-3,3-dimethyl-1-oxobutan-2-yl)carbamoyl)benzo[b]thiophen-5-yl)difluoromethyl)phosphonic acid] | – | DC50 (L1236 cells, read-out: DC50 S6 L1236): > 10 µM; DC50 (MB231 cells, read-out: DC50 S6 MB231): > 10 µM
CC(C)(C)[C@H](NC(=O)c1cc2cc(C(F)(F)P(=O)(O)O)ccc2s1)C(=O)N1Cc2cc(OCC(=O)NCCC#Cc3ccc4c(c3)C(=O)N(C3CCC(=O)NC3=O)C4=O)ccc2C[C@H]1C(=O)N1CCC[C@H](c2ccccc2)C1 (stereo partly drawn) [Compound 552, ((2-(((2S)-1-((3S)-7-(2-((4-(2-(2,6-dioxopiperidin-3-yl)-1,3-dioxoisoindolin-5-yl)but-3-yn-1-yl)amino)-2-oxoethoxy)-3-((R)-3-phenylpiperidine-1-carbonyl)-3,4-dihydroisoquinolin-2(1H)-yl)-3,3-dimethyl-1-oxobutan-2-yl)carbamoyl)benzo[b]thiophen-5-yl)difluoromethyl)phosphonic acid] | > 10 µM | –
CC(C)(C)[C@H](NC(=O)c1cc2cc(C(F)(F)P(=O)(O)O)ccc2s1)C(=O)N1C[C@@H](OCC(=O)NCCCCC#Cc2cccc3c2C(=O)N(C2CCC(=O)NC2=O)C3=O)C[C@H]1C(=O)N1CCC[C@H](c2ccccc2)C1 (stereo partly drawn) [Compound 499, ((2-(((2S)-1-((2S,4S)-4-(2-((6-(2-(2,6-dioxopiperidin-3-yl)-1,3-dioxoisoindolin-4-yl)hex-5-yn-1-yl)amino)-2-oxoethoxy)-2-((R)-3-phenylpiperidine-1-carbonyl)pyrrolidin-1-yl)-3,3-dimethyl-1-oxobutan-2-yl)carbamoyl)benzo[b]thiophen-5-yl)difluoromethyl)phosphonic acid] | > 10 µM | –
Cc1ncsc1-c1ccc([C@H](C)NC(=O)[C@@H]2C[C@@H](O)CN2C(=O)[C@@H](NC(=O)CCNC(=O)COc2ccc3c(c2)CN(C(=O)[C@@H](NC(=O)c2cc4cc(C(F)(F)P(=O)(O)O)ccc4s2)C(C)(C)C)[C@H](C(=O)N2CCC[C@H](c4ccccc4)C2)C3)C(C)(C)C)cc1 [Compound 471, (difluoro(2-(((S)-1-((S)-7-(2-((3-(((S)-1-((2S,4R)-4-hydroxy-2-(((S)-1-(4-(4-methylthiazol-5-yl)phenyl)ethyl)carbamoyl)pyrrolidin-1-yl)-3,3-dimethyl-1-oxobutan-2-yl)amino)-3-oxopropyl)amino)-2-oxoethoxy)-3-((R)-3-phenylpiperidine-1-carbonyl)-3,4-dihydroisoquinolin-2(1H)-yl)-3,3-dimethyl-1-oxobutan-2-yl)carbamoyl)benzo[b]thiophen-5-yl)methyl)phosphonic acid] | > 10 µM | –
CC(C)(C)[C@H](NC(=O)c1cc2cc(C(F)(F)P(=O)(O)O)ccc2s1)C(=O)N1C[C@@H](OCC(=O)NCCC#Cc2cccc3c2C(=O)N(C2CCC(=O)NC2=O)C3=O)C[C@H]1C(=O)N1CCC[C@H](c2ccccc2)C1 (stereo partly drawn) [Compound 495, ((2-(((2S)-1-((2S,4S)-4-(2-((4-(2-(2,6-dioxopiperidin-3-yl)-1,3-dioxoisoindolin-4-yl)but-3-yn-1-yl)amino)-2-oxoethoxy)-2-((R)-3-phenylpiperidine-1-carbonyl)pyrrolidin-1-yl)-3,3-dimethyl-1-oxobutan-2-yl)carbamoyl)benzo[b]thiophen-5-yl)difluoromethyl)phosphonic acid] | > 10 µM | –
Cc1ncsc1-c1ccc(CNC(=O)[C@@H]2C[C@@H](O)CN2C(=O)[C@@H](NC(=O)CCCCCCCCCNC(=O)CCN(C(=O)[C@@H]2CCCN2C(=O)[C@@H](NC(=O)c2cc3cc(C(F)(F)P(=O)(O)O)ccc3s2)C(C)(C)C)c2ccc(Br)cc2)C(C)(C)C)cc1 [Compound 396] ({Benzothienyl2CO(5-CF2PO3H2)}-[Tle]P[βAla(N-(4-Br-phenyl))][NH(CH2)9CO][Tle][Hyp]-{NHBn(4-(4-Me-thiazol-5-yl))}) | – | DC50 (read-out: DC50 S6 MB231, MB231 cells): > 10 µM
CC(C)(C)[C@H](NC(=O)c1cc2cc(C(F)(F)P(=O)(O)O)ccc2s1)C(=O)N1Cc2cc(OCC(=O)NCCCCC#Cc3ccc4c(c3)C(=O)N(C3CCC(=O)NC3=O)C4=O)ccc2C[C@H]1C(=O)N1CCO[C@H](c2ccccc2)C1 (stereo partly drawn) [Compound 542, ((2-(((2S)-1-((3S)-7-(2-((6-(2-(2,6-dioxopiperidin-3-yl)-1,3-dioxoisoindolin-5-yl)hex-5-yn-1-yl)amino)-2-oxoethoxy)-3-((R)-2-phenylmorpholine-4-carbonyl)-3,4-dihydroisoquinolin-2(1H)-yl)-3,3-dimethyl-1-oxobutan-2-yl)carbamoyl)benzo[b]thiophen-5-yl)difluoromethyl)phosphonic acid] | > 10 µM | –
Cc1ncsc1-c1ccc([C@H](CC(=O)NCCCCCCC(=O)N[C@H]2C[C@@H](C(=O)N3CCO[C@H](c4ccccc4)C3)N(C(=O)[C@@H](NC(=O)c3cc4cc(C(F)(F)P(=O)(O)O)ccc4s3)C(C)(C)C)C2)NC(=O)[C@@H]2C[C@@H](O)CN2C(=O)[C@@H](NC(=O)C2(F)CC2)C(C)(C)C)cc1 [Compound 569, (difluoro(2-(((S)-1-((2S,4S)-4-(7-((S)-3-((2S,4R)-1-((S)-2-(1-fluorocyclopropane-1-carboxamido)-3,3-dimethylbutanoyl)-4-hydroxypyrrolidine-2-carboxamido)-3-(4-(4-methylthiazol-5-yl)phenyl)propanamido)heptanamido)-2-((R)-2-phenylmorpholine-4-carbonyl)pyrrolidin-1-yl)-3,3-dimethyl-1-oxobutan-2-yl)carbamoyl)benzo[b]thiophen-5-yl)methyl)phosphonic acid] | > 10 µM | –
